According to publication PMC11359531, “Establishment of Dissolution Test Method for Multi-Components in Traditional Chinese Medicine Preparations Based on In Vitro–In Vivo Correlation” (Pharmaceuticals, 2024):

Assays:
[1] = Dissolution test of Q-markers in YZTs, paddle method, and fitting of dissolution profiles; format: physicochemical; conditions: for Best-fitted dissolution model, Functions: YZTs, 75 rpm
Method: The dissolution of five Q-markers in YZTs was evaluated using the paddle method in accordance with the Chinese Pharmacopoeia. […] The dissolution tests were conducted at a temperature of 37 ± 0.5 °C and a paddle speed of 75 rpm. Add 6 tablets to each dissolving cup, accompanied by 900 mL of dissolving solution, in 6 parallel aliquots, and samples of 3 mL were collected at 15, 30, 45, 60, 90, 120, 180, 240, and 360 min, respectively. Taking into account the gastric emptying time, the end time of dissolution measurement was 180 min when taking 0.1 M of HCl as dissolution medium. The dissolution medium was replenished after each sampling. The samples were filtered through 0.22 μm membrane and analyzed using the HPLC method described in Section 3.2. The chromatographic results were processed to calculate the concentration of each component at different time points, and the dissolution results were calculated using Equation (3) as follows:(3) D=(CnV1+V2∑i=1n−1Cn−1)×100%/M
Cn is the drug concentration at time point n; V1 is the volume of dissolution medium in the dissolution cup; V2 is the volume of the sample removed at each time point; M is the total drug content.
The Phoenix WinNonlin IVIVC Toolkit provides Hill, Weibull, and Makoid Banakar functions to fit the average dissolution of each component in each dissolved medium. The best-fitting model was selected according to the highest correlation coefficient (R) and the smallest Akaike information criterion (AIC) value in the fitting results.
Hill:(4) Fdiss,vitro=Finf×t^b/MDT^b+t^b
Weibull:(5) Fdiss,vitro=Finf×(1−exp[−t−tlag/MDT]^b)
Makoid Banakar:(6) Fdiss,vitro=Fmax×(t/Tmax)^b×exp[b×(1−t/Tmax)] for t≤T_max (7) Fdiss,vitro=Fmax for t>Tmax where Fdiss,vitro is the fitting fraction dissolved at time t, Finf is the fraction dissolved at time infinity (fixed as 1), MDT is the average dissolution time (hours), Fmax is the maximum in vitro dissolution value, tlag is the lag time, Tmax is the time corresponding to the maximum in vitro dissolution value, and b is the shape parameters.

[2] = Pharmacokinetic study of the Q-markers in beagle dogs; conditions: dog
Method: An ACQUITY UPLC system from Waters was used for chromatography separation, equipped with a Waters Cortecs C18 column (1.7 μm, 2.1 mm × 50 mm) operated at a flow rate of 0.30 mL/min. The column temperature and auto-sampler temperature were set as 45 °C and 4 °C, respectively. The mobile phases were 10 mM ammonium acetate solution (pH 5.0 by acetic acid) (A) and acetonitrile (B) and the gradient elution used was as follows: 30–39% B from 0–3.3 min, 39–95% B from 3.3–5.4 min, 95% B from 5.4–7.4 min, 95–30% B from 7.4–13.5 min, and 30% B from 13.5–16.0 min. The injection volume was 3 μL. The AB SCIEX Qtrap™ 6500 LC-MS/MS system with electron spray ionization (ESI) source in multiple reaction monitoring (MRM) mode was used for MS analysis. The detection was performed under the following conditions: source temperature (at set point) at 550.0 °C, positive ion mode, GS1 at 40 psi, GS2 at 40 psi, CUR at 45 psi, CXP at 15 V, DP at 100 V, and EP at 10 V. Quantitative analysis of analytes in MRM mode was used to determine the transition of precursor ions to specific product ions (m/z): tetrahydropalmatine, m/z […] [M + H]+ → m/z 229.0 (collision energy, CE: 17 V), corydaline, m/z […] (CE: 17 V), protopin, m/z […] [M + H]+ → m/z 227.1 (CE: 23 V), allocryptopine, m/z […] [M + H]+ → m/z 373.2 (CE: 17 V), and byakangelicin, m/z 389.2 [M + H]+ → m/z 363.1 (CE: 17 V). The data were processed using MultiQuant™ 2.1 software purchased from SCIEX.
The standard solutions of tetrahydropalmatine, corydaline, protopin, α-allocryptopine, and byakangelicin were prepared by dissolving them in acetonitrile to obtain a mixed standard stock solution, which was further diluted with acetonitrile to prepare a series of different concentration gradient mixed standard solutions. An internal standard solution of 25 ng/mL was prepared from betamethasone solution (500 μg/mL) diluted with acetonitrile. Blank dog blood was collected through intravenous blood sampling, and plasma was obtained by centrifugation. To prepare the standard plasma sample, 25 μL of the mixed standard solution was added to 100 μL of blank plasma, and 400 μL of acetonitrile was added and vortexed for protein precipitation. The supernatant was acquired by centrifugation and blown dry with nitrogen. Then, 100 μL of acetonitrile was added to the dried supernatant, and the resulting solution was mixed to gain the standard plasma sample. Different mixed standard solution including a serial of concentrations of tetrahydropalmatine: 0.625–25 ng/mL, corydaline: 0.625–25 ng/mL, protopin: 0.1–4 ng/mL, α-allocryptopine: 0.1–4 ng/mL, byakangelicin: 18.75–750 ng/mL were applied to prepare standard plasma sample and quality control (QC) samples of plasma as follows: 1.25, 5, and 20 ng/mL for tetrahydropalmatine and corydaline, 0.2, 0.8, and 3.2 ng/mL for protopin and α-allocryptopine, and 37.5, 150, and 600 ng/mL for byakangelicin.
For pharmacokinetic study, six beagle dogs were used and housed in a professional animal breeding room with a relative humidity of 55–60% and a temperature of 25 °C for one week. The experimental operation was carried out in accordance with ethical requirements for animal experiments and approved by the Institutional Animal Care and Use Committee of the School of Pharmacy, Fudan University. The dogs had free access to drinking water and were fasted for 24 h before the experiment. The dogs were randomly divided into two groups, one group receiving an oral dose of 12 tablets with brand A (tetrahydropalmatine 2.5 mg, corydaline 0.963 mg, protopin 1.896 mg, α-allocryptopine 0.917 mg, and byakangelicin 2.783 mg), while the other group were given an intravenous dose of 2 mL of normal saline containing tetrahydropalmatine 19.75 μg, corydaline 4.54 μg, protopin 168.062 μg, α-allocryptopine 297.16 μg, and byakangelicin 78.68 μg. Blood samples of 2 mL were taken at 15, 30, 45, 60, 90, 120, 150, 180, 240, 360, 480, 720, and 1440 min after dosing.

[3] = External validation of IVIVC model with another brand of YZTs; conditions: beagle, dog, blood, po
From the text: In order to further apply the identified in vivo correlated dissolution conditions to different batches of YZTs, another brand of YZTs was selected for external validation of the dissolution conditions and IVIVC model results. The dissolution data of different brands in the identified media were input into the established IVIVC model to obtain the predicted blood concentration–time curve and to compare the PE% between the predicted value and the actual value.

Compound | AUC(0-inf) ([2]; beagle, plasma, iv) | AUC(0-t) ([2]; beagle, plasma, iv) | Cmax ([2]; beagle, plasma, iv) | Tmax ([2]; beagle, plasma, iv) | half-life ([2]; beagle, plasma, iv) | AUC ([2]; beagle, plasma, po) | AUC(0-inf) ([2]; beagle, plasma, po) | AUC(0-t) ([2]; beagle, plasma, po) | Cmax ([2]; beagle, plasma, po) | Tmax ([2]; beagle, plasma, po) | bioavailability ([2]; beagle, plasma, po) | half-life ([2]; beagle, plasma, po) | AUC [3] | Cmax [3] | Best-fitted dissolution model, Functions ([1]; 0.1 M HCl) | Best-fitted dissolution model, Functions ([1]; Acetate buffer) | Best-fitted dissolution model, Functions ([1]; FaSSIF-V2) | Best-fitted dissolution model, Functions ([1]; Phosphate buffer) | other results
COc1c2ccoc2c(OC[C@@H](O)C(C)(C)O)c2oc(=O)ccc12 [Byakangelicin, byakangelicin] | 11.7 ng·h/mL | 11.1 ng·h/mL | 11.8 ng/mL | 0.0833 h | 0.775 h | 59.7 ng·h/mL | 65.3 ng·h/mL | 59.7 ng·h/mL | 27.3 ng/mL | 1 h | 3.81% | 3.29 h | 54.5 ng·h/mL | 29.6 ng/mL | – | – | – | – | released ([1]; from YZTs, all other dissolution media than simulated gastric fluid and 0.1 M HCl, paddle 75 rpm): less than 40%
COc1cc2c(cc1OC)[C@H]1[C@@H](C)c3ccc(OC)c(OC)c3CN1CC2 [Corydaline, corydaline] | 7.18 ng·h/mL | 6.5 ng·h/mL | 5.01 ng/mL | 0.0833 h | 3.96 h | 74.2 ng·h/mL | 81.1 ng·h/mL | 74.2 ng·h/mL | 24.8 ng/mL | 1.5 h | 5.38% | 8.74 h | 34.3 ng·h/mL | 12 ng/mL | y(t) = 0.79 × (1 − exp[−(t/1.06)^2.00]) | y(t) = 0.71 × (1 − exp[−(t/1.23)^2.04]) | y(t) = 0.15 × (1 − exp[−(t/3.14)^1.77]) | y(t) = 0.25 × (1 − exp[−(t/1.94)^2.82]) | –
COc1cc2c(cc1OC)[C@@H]1Cc3ccc(OC)c(OC)c3CN1CC2 [Tetrahydropalmatine, tetrahydropalmatine] | 10.9 ng·h/mL | 9.87 ng·h/mL | 11.4 ng/mL | 0.0833 h | 6.66 h | 136 ng·h/mL | 137 ng·h/mL | 136 ng·h/mL | 45.7 ng/mL | 1.5 h | 10.8% | 3.9 h | 59.9 ng·h/mL | 16.4 ng/mL | – | – | y(t) = 0.38 × (1 − exp[−(t/3.48)^1.91]) | y(t) = 0.30 × (1 − exp[−(t/2.29)^2.34]) | –
COc1ccc2c(c1OC)CN(C)CCc1cc3c(cc1C(=O)C2)OCO3 [α-allocryptopine] | – | – | – | – | – | – | – | – | – | – | – | – | 2.04 ng·h/mL | 0.5 ng/mL | – | y(t) = 0.86 × (1 − exp[−(t/1.26)^1.97]) | – | y(t) = 0.60 × (1 − exp[−(t/1.29)^1.78]) | released within 6 h ([1]; from YZTs, phosphate buffer and artificial intestinal fluid, paddle 75 rpm): less than 60%; AUC(0-inf) ([2]; beagle, in vivo, iv): 39.6 ng·h/mL; AUC(0-t) ([2]; beagle, in vivo, iv): 35.9 ng·h/mL; Cmax ([2]; beagle, in vivo, iv): 32.8 ng/mL; Tmax ([2]; beagle, in vivo, iv): 0.0833 h; half-life ([2]; beagle, in vivo, iv): 5.52 h; AUC ([2]; beagle, in vivo, po): 8.31 ng·h/mL; AUC(0-inf) ([2]; beagle, in vivo, po): 9.12 ng·h/mL; AUC(0-t) ([2]; beagle, in vivo, po): 8.31 ng·h/mL; Cmax ([2]; beagle, in vivo, po): 3.51 ng/mL; Tmax ([2]; beagle, in vivo, po): 1 h; bioavailability ([2]; beagle, in vivo, po): 7.5%; half-life ([2]; beagle, in vivo, po): 8.39 h
protopine | – | – | – | – | – | – | – | – | – | – | – | – | – | – | y(t) = 0.70 × (1 − exp[−(t/1.10)^2.06]) | – | – | y(t) = 0.62 × (1 − exp[−(t/1.50)^1.63]) | Best-fitted dissolution model, Functions ([1]; FaSSGF): y(t) = 0.82 × (1 − exp[−t^1.01]); Bioavailability (absolute oral) ([2]; in vivo): 1.35%; Cl/F ([2]; in vivo, iv): 0.03 L/h; Cmax ([2]; in vivo, iv): 12.44 ng/mL; T1/2 ([2]; in vivo, iv): 4.5773 h; Tmax ([2]; in vivo, iv): 0.083 h; Vz/F ([2]; in vivo, iv): 0.22 L; Cl/F ([2]; in vivo, po): 0.21 L/h; Cmax ([2]; in vivo, po): 1.63 ng/mL; Observed AUC ([2]; in vivo, po): 205.15; Observed Cmax ([2]; in vivo, po): 1.63 ng/mL; T1/2 ([2]; in vivo, po): 5.321 h; Tmax ([2]; in vivo, po): 1.5 h; Vz/F ([2]; in vivo, po): 1.64 L
